# In patent publication US10640748B2, “Oligodendroglial cell culturing methods and in methods for treating neurodegenerative disorders by using thyroid hormones or analogues” (NeuOrphan Pty Ltd, priority 2014, dated 2020):
# What was measured:
# [1] = test system: AHDS patients; conditions: cited from earlier work
# [2] = test system: rat retinal ganglion cells (RGCs) and Nkx2.1-GFP+ sorted OPCs; assay: Co-culture and myelination assay with rat RGC and hESC-derived OPCs; assay type: cell-based, rat; human
# Description: Retinae were dissected from P6 Sprague-Dawley rat pups (AEC #1121/2011/M). RGCs were purified according to the published immunopanning protocol (Deliyanti and Wilkinson-Berka, 2015; Watkins et al., 2008). Details of the RGC preparation are described in Supplemental Experimental Procedure. The RGC growth medium was changed every third day and cultures were maintained for 9 days. Pre-OLs from Nkx2.1-GFP+ cells at stage VI day 10, were FACS sorted according to O4 antibody labeling. O4+ sorted cells were then co-cultured with RGCs at a density of 20,000/well under 3 different conditions: T3 with 0.01% ethanol, 10 ng/mL DITPA, and 40 ng/mL T3 with DITPA in myelination medium (see Supplemental Experimental Procedure). The medium was changed every 3 days and all co-cultures were fixed after 7 days, followed by immunocytochemistry. Cells were stained with a monoclonal rat anti-mCherry (Life Technologies, M11217, 1:1,000); monoclonal mouse anti-NF-200 (Sigma-Aldrich, N0142, 1:200); and polyclonal rabbit anti-MBP (Millipore, AB980, 1:200). Followed by incubation of appropriate Alexa Fluor-labeled secondary antibodies (Life technologies).
# In RGC-OPC co-cultures, myelin segments were counted manually. 10 fields (×20 objective) were randomly selected and captured from each coverslip with a confocal microscope (Nikon A1 inverted). For representative images, 10 z-stack images (0.25 μm intervals) were captured, analysed and processed for 3D volume rendering by Imaris version 7.6.4. OLs were scored according to their morphology and defined as either “resting” (processes not touching axons); “contacting” (processes touching axons but not wrapping); and “ensheathing” (processes aligned with and wrapping axons). A myelination index (i.e. axons myelinated) was calculated by: the number of MBP+ membrane, ensheathing the NF200+ axons/the total number of NF200+ axons.
# The dissected retinae were digested using papain dissociation system according to the manufacturer's protocol (Worthington). […]
# [3] = test system: slc16a2-/- zebrafish; conditions: cited from earlier work
# [4] = test system: rat RGCs and slc16a2 down-regulated OLs from Nkx2.1-GFP+ sorted cells; assay: Co-culture myelination assay with slc16a2 down-regulated OLs; assay type: cell-based, rat; human; conditions: slc16a2 down-regulated OLs co-cultured with rat RGCs for 7 days
# Description: Retinae were dissected from P6 Sprague-Dawley rat pups (AEC #1121/2011/M). RGCs were purified according to the published immunopanning protocol (Deliyanti and Wilkinson-Berka, 2015; Watkins et al., 2008). Details of the RGC preparation are described in Supplemental Experimental Procedure. The RGC growth medium was changed every third day and cultures were maintained for 9 days. Pre-OLs from Nkx2.1-GFP+ cells at stage VI day 10, were FACS sorted according to O4 antibody labeling. O4+ sorted cells were then co-cultured with RGCs at a density of 20,000/well under 3 different conditions: T3 with 0.01% ethanol, 10 ng/mL DITPA, and 40 ng/mL T3 with DITPA in myelination medium (see Supplemental Experimental Procedure). […]
# For quantification of myelination in vitro following knockdown of slc16a2, at least nine fields (×20 objective) were randomly selected and captured from each coverslip with a confocal microscope (Nikon A1 inverted). A myelination index (%) by mCherry+ cells (i.e. axons myelinated by mCherry+ cells) was calculated by: the number of mCherry+/MBP+ membrane, ensheathing the NF200+ axons/the total number of NF200+ axons. Furthermore, the viable ensheathing mCherry+/MBP+ OLs and mature mCherry+ OLs according to their morphology with multiple processes and membranous sheaths were counted and their % calculated.
smiles,measurement,setting,value
"O=C(O)CCc1cc(I)c(Oc2ccc(O)cc2)c(I)c1 [DITPA, 3,5-Diiodothyropropionic acid]",hypermetabolism,[1],reduce
same,peripheral hyperthyroidism,[1],normalize
same,percentage of myelination (number of myelinated axons/total number of axons),"[2]; 7 days co-culture, 10 ng/mL DITPA, compared with T3 alone",significantly enhanced
same,contacting or ensheathing MBP+ OLs,"[2]; 7 days co-culture, 10 ng/mL DITPA, versus T3 alone",more
same,myelination of rat retinal ganglion cells,[2]; FIG. 6,Depicts an experiment which shows that DITPA promotes the myelination of rat
same,locomotor behavioral outcomes,[3],restored
same,myelin deficiencies,[3],restored
same,mCherry+/MBP+ myelinating OLs and mCherry+/MBP+ myelin segments,[4],found
